# Data published in patent US11071731B2, “Allosteric modulators of the mu opioid receptor” (Chiromics, LLC, priority 2017, dated 2021).
# Tests used:
# mu opioid receptor (MOR) [1] = target: T1, mu opioid receptor (MOR) (Homo sapiens, UniProt P35372); assay: Hit Hunter cAMP signaling assay (adenylyl cyclase inhibition), PAM mode with EC20 endomorphin-1; type: cell-based
# mu opioid receptor (MOR) [2] = target: T1, mu opioid receptor (MOR); assay: PathHunter β-arrestin recruitment assay, PAM mode with EC20 endomorphin-1; type: cell-based; conditions: for EC50: read-out: β-arr. EC50; for inhibition of β-arrestin recruitment at a static concentration of 5 μM: printed in β-arr. EC50 column
# Experimental: The effects of MOR PAMs and MOR SAMs on receptor activity were assayed using the PathHunter enzyme complementation assay technology (DiscoveRx, CA). A description of the technology employed is as follows.
# Beta-Arrestin Pathway: The PathHunter β-arrestin assay monitors the activation of a GPCR in a homogenous, non-imaging assay format using a technology developed by DiscoveRx called Enzyme Fragment Complementation (EFC) with beta-galactosidase (β-Gal) as the functional reporter. […] EA is fused to β-Arrestin and ED is fused to the GPCR of interest. When the GPCR is activated and β-arrestin is recruited to the receptor, ED and EA complementation occurs, restoring β-gal activity, which is measured using chemiluminescent PathHunter Detection Reagents.
# In this manner an EC50 for each test compound, and percent maximal response for each test compound, were determined for both the β-arrestin and cAMP pathways. Though the pharmacological effects of a given signal bias can be hypothesized (Raehal et al. (2011) Pharmacol. Rev. 63:1001-1019), it is not possible to know with certainty which bias ratio will be most advantageous in a clinical setting. […] Kenakin 2015a, supra. The information associated with the compounds detailed herein is the first large data set available for the prediction of ligand bias for an MOR PAM.
# [3] = adenylyl cyclase inhibition, read-out: cAMP EC50
# [4] = maximal response for adenylyl cyclase inhibition
# [5] = maximal response for β-arrestin recruitment
# [6] = cAMP EC50, adenylyl cyclase inhibition
# [7] = read-out: cAMP EC50, adenylyl cyclase inhibition
# T1 sequence (P35372 whole entry): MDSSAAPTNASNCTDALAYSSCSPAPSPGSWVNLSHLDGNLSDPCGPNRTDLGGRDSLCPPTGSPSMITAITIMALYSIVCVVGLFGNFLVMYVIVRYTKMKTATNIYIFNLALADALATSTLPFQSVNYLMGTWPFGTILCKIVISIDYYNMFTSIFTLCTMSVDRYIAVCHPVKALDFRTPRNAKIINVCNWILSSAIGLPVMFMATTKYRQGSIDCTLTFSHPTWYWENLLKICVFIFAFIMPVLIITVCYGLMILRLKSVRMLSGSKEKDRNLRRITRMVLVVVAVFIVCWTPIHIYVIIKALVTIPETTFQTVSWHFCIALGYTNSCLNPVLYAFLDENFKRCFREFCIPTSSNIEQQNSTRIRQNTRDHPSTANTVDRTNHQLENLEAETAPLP
SMILES,cAMP Max. Resp. (mu opioid receptor (MOR) [1]; [4]),β-arr Max. Resp. (mu opioid receptor (MOR) [2]; [5]),EC50 (mu opioid receptor (MOR) [2]; β-arrestin recruitment),inhibition of β-arrestin recruitment at a static concentration of 5 μM (mu opioid receptor (MOR) [2]),also measured
CN1CCN(c2nc(Cl)ncc2F)C(c2cccc(C(F)(F)F)c2)C1 (racemic) [Compound 282],D (D represents a maximal response of < 40%),F (F represents a maximal response of > 60%),700 to 2100 nM,–,EC50 (mu opioid receptor (MOR) [1]; [3]): 700 to 2100 nM
Fc1cnc(Cl)nc1N1CCCCC1c1cccc(C(F)(F)F)c1 (stereo not drawn) [compound 7],F (F represents a maximal response of > 60%),F (F represents a maximal response of > 60%),< 700 nM,–,EC50 (mu opioid receptor (MOR) [1]; [6]): < 700 nM
Fc1cc(C2CCCCN2c2nc(Cl)ncc2F)cc(C(F)(F)F)c1 (stereo not drawn) [compound 122],F (F represents a maximal response of > 60%),F (F represents a maximal response of > 60%),< 700 nM,–,EC50 (mu opioid receptor (MOR) [1]; [6]): < 700 nM
"Fc1ccc(C2CCCCN2c2nc(Cl)ncc2F)cc1C(F)(F)F (single isomer, unassigned) [compound 422]",–,–,< 700 nM,–,"EC50 (mu opioid receptor (MOR) [1]; [6]): < 700 nM; cAMP Max. Resp. (mu opioid receptor (MOR) [1]; maximal response, adenylyl cyclase inhibition): D (D represents a maximal response of < 40%); β-arr Max. Resp. (mu opioid receptor (MOR) [2]; maximal response, β-arrestin recruitment): D (D represents a maximal response of < 40%)"
"COc1ccc(C2CC(C(F)(F)F)CN2S(=O)(=O)c2ccc(Cl)cc2)cc1Br (single isomer, unassigned) [Compound 120]",F (F represents a maximal response of > 60%),F (F represents a maximal response of > 60%),> 2100 nM,–,EC50 (mu opioid receptor (MOR) [1]; [3]): > 2100 nM
Fc1cnc(Cl)nc1N1CCCCC1c1cccc(Cl)c1 (stereo not drawn) [compound 285],E (E represents a maximal response of 40-60%),F (F represents a maximal response of > 60%),700 to 2100 nM,–,EC50 (mu opioid receptor (MOR) [1]; [6]): > 2100 nM
OC1CN(c2ncc(F)c(N3CCCCC3c3cccc(C(F)(F)F)c3)n2)C1 (stereo not drawn) [compound 256],D (D represents a maximal response of < 40%),D (D represents a maximal response of < 40%),> 2100 nM,–,EC50 (mu opioid receptor (MOR) [1]; [6]): > 2100 nM
Fc1cnc(Cl)nc1N1CCCCC1c1ccc2cncn2c1 (stereo not drawn) [compound 334],D (D represents a maximal response of < 40%),D (D represents a maximal response of < 40%),< 700 nM,–,EC50 (mu opioid receptor (MOR) [1]; [6]): < 700 nM
COc1ccc(C2CCCCN2c2ccnc(Cl)n2)cc1Br (stereo not drawn) [compound 226],F (F represents a maximal response of > 60%),F (F represents a maximal response of > 60%),> 2100 nM,–,EC50 (mu opioid receptor (MOR) [1]; [6]): > 2100 nM
O=S(=O)(Cc1ccccc1)N1C2CCC(C2)C1c1ccc(F)c(Br)c1 (stereo not drawn) [Compound 182],D (D represents a maximal response of < 40%),E (E represents a maximal response of 40-60%),> 2100 nM,–,EC50 (mu opioid receptor (MOR) [1]; [3]): > 2100 nM
COc1ncc(F)c(N2CCCCC2c2ccc(OC)c(Br)c2)n1 (stereo not drawn) [compound 225],F (F represents a maximal response of > 60%),F (F represents a maximal response of > 60%),> 2100 nM,–,EC50 (mu opioid receptor (MOR) [1]; [6]): > 2100 nM
Oc1ncnc(N2CCCCC2c2cccc(C(F)(F)F)c2)c1F (stereo not drawn) [compound 356],D (D represents a maximal response of < 40%),D (D represents a maximal response of < 40%),< 700 nM,–,EC50 (mu opioid receptor (MOR) [1]; [6]): < 700 nM
O=S(=O)(c1ccc2ccccc2c1)N1CCCCC1c1cccc(C(F)(F)F)c1 (stereo not drawn) [Compound 20],–,–,–,"G (G represents < 50% inhibition of β-arrestin recruitment at a static concentration of 5 μM, for compounds that were not tested for adenylyl cyclase inhibition)",–
COc1ccc(C2CCCCN2S(=O)(=O)c2ccc(Cl)cc2)cc1Br (racemic) [compound 4],–,F (F represents a maximal response of > 60%),> 2100 nM,–,–
O=S(=O)(c1ccc(Cl)cc1)N1CCCCC1c1ccccn1 (stereo not drawn) [compound 45],–,–,–,"G (G represents < 50% inhibition of β-arrestin recruitment at a static concentration of 5 μM, for compounds that were not tested for adenylyl cyclase inhibition)",–
COc1ccc(C2CCN2S(=O)(=O)c2ccc(Cl)cc2)cc1Br (stereo not drawn) [compound 40],–,D (D represents a maximal response of < 40%),> 2100 nM,–,–
Cc1cccc(C2CCCCN2S(=O)(=O)c2ccc(Cl)cc2)n1 (stereo not drawn) [compound 46],–,–,–,"G (G represents < 50% inhibition of β-arrestin recruitment at a static concentration of 5 μM, for compounds that were not tested for adenylyl cyclase inhibition)",–
[2H]C1(c2ccc(F)c(Br)c2)C(F)CCCN1S(=O)(=O)Cc1ccccc1 (stereo not drawn) [Compound 35],–,–,–,"G (G represents < 50% inhibition of β-arrestin recruitment at a static concentration of 5 μM, for compounds that were not tested for adenylyl cyclase inhibition)",–

SMILES,cAMP Max. Resp. (mu opioid receptor (MOR) [1]; [4]),β-arr Max. Resp. (mu opioid receptor (MOR) [2]; [5]),EC50 (mu opioid receptor (MOR) [2]; β-arrestin recruitment),inhibition of β-arrestin recruitment at a static concentration of 5 μM (mu opioid receptor (MOR) [2]),also measured
COc1ccc(C2C(F)CCN2S(=O)(=O)c2ccc(Cl)cc2)cc1Br (stereo not drawn) [Compound 115],–,E (E represents a maximal response of 40-60%),> 2100 nM,–,–
COc1ccc(C2CCCN2S(=O)(=O)c2ccc(Cl)cc2)cc1Br (stereo not drawn) [compound 41],–,F (F represents a maximal response of > 60%),> 2100 nM,–,–
[2H]C1(c2ccc(F)c(Br)c2)C(F)CCCN1S(=O)(=O)Cc1ccc(Cl)c(Cl)c1 (stereo not drawn) [Compound 34],–,–,–,"G (G represents < 50% inhibition of β-arrestin recruitment at a static concentration of 5 μM, for compounds that were not tested for adenylyl cyclase inhibition)",–
FC(F)(F)c1cccc(C2CCCCN2Cc2ccc(Cl)cc2)c1 (stereo not drawn) [compound 140],–,–,–,"G (G represents < 50% inhibition of β-arrestin recruitment at a static concentration of 5 μM, for compounds that were not tested for adenylyl cyclase inhibition)",–
O=S(=O)(c1ccccc1)N1CCCCC1c1cccc(C(F)(F)F)c1 (stereo not drawn) [Compound 19],–,–,–,"G (G represents < 50% inhibition of β-arrestin recruitment at a static concentration of 5 μM, for compounds that were not tested for adenylyl cyclase inhibition)",–
"Fc1cnc(Cl)nc1N1CCCC(F)C1c1cccc(C(F)(F)F)c1 (single isomer, unassigned) [compound 209]",–,–,–,–,EC50 (mu opioid receptor (MOR) [1]; [7]): 700 to 2100 nM
"Fc1cnc(Cl)nc1N1CCCC(F)C1c1cccc(C(F)(F)F)c1 (single isomer, unassigned) [compound 208]",–,–,–,–,EC50 (mu opioid receptor (MOR) [1]; [7]): 700 to 2100 nM
"COc1ccc(C2CC(F)CN2S(=O)(=O)c2ccc(Cl)cc2)cc1Br (single isomer, unassigned) [Compound 112]",–,–,–,"G (G represents < 50% inhibition of β-arrestin recruitment at a static concentration of 5 μM, for compounds that were not tested for adenylyl cyclase inhibition)",–
"COc1ccc(C2N(S(=O)(=O)c3ccc(Cl)cc3)CCC2(F)F)cc1Br (single isomer, unassigned) [Compound 116]",–,F (F represents a maximal response of > 60%),> 2100 nM,–,–
[2H]C1(c2ccc(F)c(Br)c2)C(F)CCCN1S(=O)(=O)c1ccc2ccccc2c1 (stereo not drawn) [Compound 31],–,–,–,"G (G represents < 50% inhibition of β-arrestin recruitment at a static concentration of 5 μM, for compounds that were not tested for adenylyl cyclase inhibition)",–
COc1ccc(C2N(S(=O)(=O)c3ccc(Cl)cc3)CCC2(F)F)cc1Br (stereo not drawn) [Compound 113],–,F (F represents a maximal response of > 60%),> 2100 nM,–,–
[2H]C1(c2ccc(F)c(Br)c2)C(F)CCCN1S(=O)(=O)c1ccccc1 (stereo not drawn) [Compound 30],–,–,–,"G (G represents < 50% inhibition of β-arrestin recruitment at a static concentration of 5 μM, for compounds that were not tested for adenylyl cyclase inhibition)",–
"COc1ccc(C2CC(F)CN2S(=O)(=O)c2ccc(Cl)cc2)cc1Br (single isomer, unassigned) [Compound 114]",–,D (D represents a maximal response of < 40%),> 2100 nM,–,–
N#Cc1cccc(C2CCCCN2S(=O)(=O)c2ccc(Cl)cc2)n1 (stereo not drawn) [compound 47],–,–,–,"G (G represents < 50% inhibition of β-arrestin recruitment at a static concentration of 5 μM, for compounds that were not tested for adenylyl cyclase inhibition)",–
[2H]C1(c2ccc(F)c(Br)c2)C(F)CCCN1S(=O)(=O)Cc1ccccc1Cl (stereo not drawn) [Compound 36],–,–,–,"G (G represents < 50% inhibition of β-arrestin recruitment at a static concentration of 5 μM, for compounds that were not tested for adenylyl cyclase inhibition)",–
[2H]C1(c2ccc(F)c(Br)c2)C(F)CCCN1S(=O)(=O)c1ccc(OC)cc1 (stereo not drawn) [Compound 39],–,–,–,"G (G represents < 50% inhibition of β-arrestin recruitment at a static concentration of 5 μM, for compounds that were not tested for adenylyl cyclase inhibition)",–
"COc1ccc(C2CC(C(F)(F)F)CN2S(=O)(=O)c2ccc(Cl)cc2)cc1Br (single isomer, unassigned) [Compound 111]",–,F (F represents a maximal response of > 60%),> 2100 nM,–,–
"COc1ccc(C2C(C(F)(F)F)CCN2S(=O)(=O)c2ccc(Cl)cc2)cc1Br (single isomer, unassigned) [Compound 117]",–,F (F represents a maximal response of > 60%),> 2100 nM,–,–
